Measured values from article PMC4278837, “A Cyclic Peptidic Serine Protease Inhibitor: Increasing Affinity by Increasing Peptide Flexibility” (PLoS ONE, 2014).
Bridge positions count the residues as written; N and C are the ends. Peptide text beside a SMILES is read from it.

The compounds below were run against T1, huPA-H99Y (Homo sapiens, UniProt P00749, H272Y) (assay: Ki for inhibition of huPA-H99Y, chromogenic substrate S-2444). Conditions: not given.
T1 construct: To ensure that the uPAs purified from the conditioned media were completely in the two-chain form, they were treated with plasmin; hexa-His (C); made in house; host or cells: HEK293 6E suspension cells
Type: biochemical
Excerpt: Determination of Ki values
The initial reaction velocities were monitored at an absorbance of 405 nm. The inhibition constants (K i) were subsequently determined from the non-linear regression analyses of plots for V i/V o versus [I]0, using Equation 2, derived under assumption of competitive inhibition:
[drawing 2] (2) where V i and V 0 are the reaction velocities in the presence and absence of inhibitor, respectively; [S]0 and [I]0 are the substrate and inhibitor concentrations, respectively; K M is K M for substrate hydrolysis by each protease. In Equation 2, it is assumed that [S]free ≈ [S]0 and [I]free ≈ [I]0.

Compound | Ki [µM]
CC(=O)N[C@H]1CSSC[C@@H](C(N)=O)NC(=O)[C@H](CC(=O)O)NC(=O)[C@H](CC(C)C)NC(=O)[C@H](Cc2ccc(O)cc2)NC(=O)[C@H](C)NC(=O)[C@H](CO)NC(=O)[C@H](Cc2ccc(O)cc2)NC(=O)[C@H](C)NC(=O)[C@@H]2CCCN2C1=O [Mupain-1 R6A, CPAYSAYLDC] (Ac-CPAYSAYLDC-NH2; disulfide 1-10) | > 1000

Same assay, conditions: 37°C; means ± S.D.; read-out: K i for inhibition of huPA-H99Y

Compound | Ki [µM]
CC(=O)N[C@H]1CSSC[C@@H](C(N)=O)NC(=O)[C@H](CC(=O)O)NC(=O)[C@H](CC(C)C)NC(=O)[C@H](Cc2ccc(O)cc2)NC(=O)[C@H](CCCNC(=N)N)NC(=O)[C@H](CO)NC(=O)[C@H](Cc2ccc(O)cc2)NC(=O)[C@H](C)NC(=O)[C@H](C)NC1=O [Mupain-1 P2A, CAAYSRYLDC] (Ac-CAAYSRYLDC-NH2; disulfide 1-10) | > 1000
CC(=O)N[C@H]1CSSC[C@@H](C(N)=O)NC(=O)[C@H](CC(=O)O)NC(=O)[C@H](CC(C)C)NC(=O)[C@H](Cc2ccc(O)cc2)NC(=O)[C@H](CCCNC(=N)N)NC(=O)[C@H](C)NC(=O)[C@H](Cc2ccc(O)cc2)NC(=O)[C@H](C)NC(=O)[C@@H]2CCCN2C1=O [Mupain-1 S5A, CPAYARYLDC] (Ac-CPAYARYLDC-NH2; disulfide 1-10) | > 1000
CC(=O)N[C@H]1CSSC[C@@H](C(N)=O)NC(=O)[C@H](CC(=O)O)NC(=O)[C@H](CC(C)C)NC(=O)[C@H](Cc2ccc(O)cc2)NC(=O)[C@H](CCCNC(=N)N)NC(=O)[C@H](CO)NC(=O)[C@H](C)NC(=O)[C@H](C)NC(=O)[C@@H]2CCCN2C1=O [Mupain-1 Y4A, CPAASRYLDC] (Ac-CPAASRYLDC-NH2; disulfide 1-10) | > 1000
CC(=O)N[C@H]1CSSC[C@@H](C(N)=O)NC(=O)[C@H](CC(=O)O)NC(=O)[C@H](CC(C)C)NC(=O)[C@H](C)NC(=O)[C@H](CCCNC(=N)N)NC(=O)[C@H](CO)NC(=O)[C@H](Cc2ccc(O)cc2)NC(=O)[C@H](C)NC(=O)[C@@H]2CCCN2C1=O [Mupain-1 Y7A, CPAYSRALDC] (Ac-CPAYSRALDC-NH2; disulfide 1-10) | 44 ± 3
CPAYSRYLDC [Mupain-1 L8A] | 19.1 ± 1.1
